Assay results from ChEMBL document CHEMBL1201862, “PubChem BioAssay data set” (2004).
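Five concentrations, 48 hours, 96-well plates. GI50 marks 50% less growth.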 Active and inactive are the calls of the source. Rule as the data show it: active = GI50 up to about 1.1 µM and inactive = higher.

Assays:
Experiment in all cases: growth of human tumour cells (NCI), 48 h
CAKI-1 = tested on: CAKI-1
UO-31 = tested on: UO-31
EKVX = tested on: EKVX
RPMI-8226 = tested on: RPMI-8226
KM12 = tested on: KM12
SR = tested on: SR
SNB-75 = tested on: SNB-75
A498 = tested on: A498
ACHN = tested on: ACHN
OVCAR-4 = tested on: OVCAR-4
Malme-3M = tested on: Malme-3M
SN12C = tested on: SN12C
NCI-H23 = tested on: NCI-H23
HL-60 = tested on: HL-60
786-0 = tested on: 786-0
Hs-578T = tested on: Hs-578T
BT-549 = tested on: BT-549
CCRF-CEM = tested on: CCRF-CEM
SK-OV-3 = tested on: SK-OV-3

Measured: GI50

Cc1nc2ccc(NC3OCC(O)C(O)C3O)cc2c(=O)n1-c1ccccc1 (centres undefined)
inactive: CAKI-1 > 100 µM | UO-31 > 100 µM | EKVX > 100 µM | RPMI-8226 > 100 µM | KM12 > 100 µM | SR > 100 µM | SNB-75 > 100 µM | A498 > 100 µM | ACHN > 100 µM | OVCAR-4 > 100 µM | Malme-3M > 100 µM | SN12C > 100 µM | NCI-H23 > 100 µM | HL-60 49.7 µM | 786-0 > 100 µM | Hs-578T > 100 µM | BT-549 > 100 µM

COC(=O)NCCc1n[nH]c2c1C(=O)C=C(N1CCOCC1)C2=O
inactive: CAKI-1 > 100 µM | UO-31 > 100 µM | EKVX > 100 µM | RPMI-8226 > 100 µM | CCRF-CEM > 100 µM | KM12 > 100 µM | SR > 100 µM | SNB-75 > 100 µM | A498 > 100 µM | ACHN > 100 µM | OVCAR-4 > 100 µM | Malme-3M > 100 µM | SN12C > 100 µM | NCI-H23 > 100 µM | HL-60 > 100 µM | 786-0 > 100 µM | SK-OV-3 > 100 µM | Hs-578T > 100 µM | BT-549 > 100 µM

O=C1c2ccccc2C(=O)N1CC(CN1C(=O)c2ccccc2C1=O)(C(=O)OCc1ccccc1)C(=O)OCc1ccccc1
inactive: CAKI-1 > 100 µM | UO-31 > 100 µM | RPMI-8226 > 100 µM | CCRF-CEM 6.11 µM | KM12 > 100 µM | SR > 100 µM | SNB-75 > 100 µM | A498 > 100 µM | Malme-3M > 100 µM | SN12C > 100 µM | NCI-H23 > 100 µM | HL-60 > 100 µM | SK-OV-3 > 100 µM | Hs-578T > 100 µM | BT-549 > 100 µM

COc1cc(S(=O)(=O)Nc2ccc(-c3csc(N4C(=O)C(Cl)C4c4cccs4)n3)cc2)ccc1Cl (centres undefined)
inactive: CAKI-1 > 100 µM | UO-31 84.3 µM | EKVX 7.55 µM | RPMI-8226 26.9 µM | CCRF-CEM 4.1 µM | KM12 49.2 µM | SR 5.32 µM | SNB-75 > 100 µM | A498 > 100 µM | ACHN > 100 µM | OVCAR-4 21.6 µM | Malme-3M > 100 µM | SN12C 82.6 µM | NCI-H23 29.4 µM | HL-60 39.1 µM | 786-0 25.8 µM | SK-OV-3 > 100 µM | Hs-578T > 100 µM | BT-549 87.7 µM

CCNC(=O)c1cc(/C=C/c2ccc([N+](=O)[O-])o2)nc2ccccc12
inactive: CAKI-1 7.96 µM | UO-31 50.5 µM | EKVX > 58.2 µM | RPMI-8226 29.4 µM | CCRF-CEM 3.18 µM | KM12 98.6 µM | SR 1.38 µM | SNB-75 22 µM | A498 15.5 µM | ACHN 2.26 µM | OVCAR-4 > 100 µM | Malme-3M 15.7 µM | SN12C 15.3 µM | NCI-H23 16.9 µM | HL-60 2.75 µM | 786-0 11.3 µM | SK-OV-3 33.6 µM | Hs-578T 63.7 µM | BT-549 29.8 µM

NC(=O)Nc1ccc(C(=O)NCCCNC(=O)c2ccc(NC(N)=O)cc2)cc1
inactive: CAKI-1 > 100 µM | UO-31 > 100 µM | EKVX > 100 µM | RPMI-8226 > 100 µM | CCRF-CEM > 100 µM | KM12 > 100 µM | SR > 100 µM | SNB-75 > 100 µM | A498 > 100 µM | ACHN > 100 µM | OVCAR-4 > 100 µM | Malme-3M > 100 µM | NCI-H23 > 100 µM | HL-60 > 100 µM | Hs-578T > 100 µM | BT-549 > 100 µM

CC1(C)OCC([C@H]2O[C@@H](CC(=S)NCCCCCCCCCCCCNC(=S)C[C@H]3O[C@@H](C4COC(C)(C)O4)[C@H]4OC(C)(C)O[C@H]43)[C@H]3OC(C)(C)O[C@H]32)O1 (some centres undefined)
inactive: CAKI-1 17.5 µM | UO-31 19 µM | EKVX 49.9 µM | RPMI-8226 15.7 µM | KM12 48.6 µM | SR 34.8 µM | SNB-75 > 100 µM | A498 11.9 µM | ACHN 49.3 µM | OVCAR-4 43.3 µM | NCI-H23 30.7 µM | HL-60 30.4 µM | 786-0 83.8 µM | Hs-578T > 100 µM | BT-549 35 µM

Cn1c(-c2cccs2)cc(-c2ccsc2)c1-c1cccs1
inactive: CAKI-1 > 100 µM | UO-31 > 100 µM | EKVX 10.2 µM | CCRF-CEM > 100 µM | KM12 > 100 µM | SR > 100 µM | SNB-75 62.1 µM | A498 > 100 µM | ACHN 61.1 µM | OVCAR-4 > 100 µM | Malme-3M > 100 µM | SN12C > 100 µM | NCI-H23 45.9 µM | 786-0 > 100 µM | SK-OV-3 > 100 µM | Hs-578T 96.4 µM | BT-549 > 100 µM

Cc1nc(C)c(N2CCN(CN)CC2)c(O)n1
inactive: CAKI-1 8.15 µM | UO-31 > 100 µM | EKVX > 100 µM | RPMI-8226 > 100 µM | CCRF-CEM > 100 µM | KM12 > 100 µM | SR > 100 µM | A498 > 100 µM | ACHN > 100 µM | OVCAR-4 > 100 µM | Malme-3M > 100 µM | SN12C > 100 µM | NCI-H23 > 100 µM | HL-60 > 100 µM | 786-0 88.7 µM | SK-OV-3 > 100 µM | Hs-578T > 100 µM | BT-549 > 100 µM

Nc1ccc(/N=N/c2ccccc2)cc1
inactive: CAKI-1 93.1 µM | UO-31 13.2 µM | EKVX 28.2 µM | CCRF-CEM 6.41 µM | KM12 23.8 µM | SR 19.3 µM | SNB-75 10.3 µM | A498 46.8 µM | ACHN 30.3 µM | OVCAR-4 > 100 µM | Malme-3M 75.9 µM | SN12C 69.5 µM | NCI-H23 61.5 µM | HL-60 13.4 µM | 786-0 64.9 µM | SK-OV-3 > 100 µM | Hs-578T > 100 µM | BT-549 65.6 µM

Cc1nc(N)c(N2CCN(Cc3ccccc3)CC2)c(O)n1
inactive: UO-31 > 100 µM | EKVX > 100 µM | RPMI-8226 > 100 µM | CCRF-CEM > 100 µM | KM12 > 100 µM | SR > 100 µM | A498 > 100 µM | ACHN > 100 µM | Malme-3M > 100 µM | SN12C > 100 µM | NCI-H23 > 100 µM | HL-60 > 100 µM | 786-0 > 100 µM | Hs-578T > 100 µM | BT-549 > 100 µM

CC(C)(C)OC(=O)N(CCCCNC(=O)OCc1ccccc1)CCCNC(=O)OCc1ccccc1
inactive: CAKI-1 1.96 µM | UO-31 5.7 µM | EKVX 50.4 µM | RPMI-8226 12.6 µM | CCRF-CEM 16.3 µM | KM12 35.5 µM | SR 9.68 µM | SNB-75 51.9 µM | A498 21.8 µM | ACHN 9.86 µM | OVCAR-4 33 µM | SN12C 53.3 µM | NCI-H23 21.6 µM | HL-60 5.28 µM | 786-0 91 µM | SK-OV-3 > 100 µM | Hs-578T > 100 µM | BT-549 53 µM

Cc1cn(C2CC(OC(c3ccccc3)(c3ccccc3)c3ccccc3)C(COC(c3ccccc3)(c3ccccc3)c3ccccc3)O2)c(=O)[nH]c1=O (centres undefined)
inactive: CAKI-1 > 100 µM | UO-31 45.6 µM | EKVX 45.6 µM | CCRF-CEM > 100 µM | KM12 31.3 µM | SR > 100 µM | SNB-75 58.7 µM | A498 25.4 µM | ACHN 68.4 µM | OVCAR-4 > 100 µM | Malme-3M 68.7 µM | SN12C 53.6 µM | HL-60 53.1 µM | 786-0 > 100 µM | SK-OV-3 > 100 µM | Hs-578T 38.1 µM | BT-549 27.5 µM

C=C1C(OC2O[C@@H]3O[C@@]4(C)CC[C@H]5[C@H](C)CC[C@@H](C2=C)[C@@]35O4)O[C@@H]2O[C@@]3(C)CC[C@H]4[C@H](C)CC[C@@H]1[C@@]24O3 (some centres undefined)
inactive: CAKI-1 > 50 µM | UO-31 > 50 µM | EKVX > 50 µM | RPMI-8226 > 50 µM | CCRF-CEM > 50 µM | KM12 > 50 µM | SR > 50 µM | A498 > 50 µM | ACHN > 50 µM | OVCAR-4 > 50 µM | Malme-3M > 50 µM | SN12C > 50 µM | NCI-H23 > 50 µM | HL-60 > 50 µM | 786-0 > 50 µM | SK-OV-3 > 50 µM | Hs-578T > 50 µM | BT-549 > 50 µM

CCOC(=O)/C=C/[C@H](O)[C@@H](O)/C=C/C(=O)OCC
inactive: CAKI-1 23.1 µM | UO-31 61.8 µM | EKVX 24.7 µM | RPMI-8226 21.2 µM | CCRF-CEM 8.34 µM | KM12 18.9 µM | SR 8.04 µM | SNB-75 62.7 µM | A498 42.7 µM | ACHN 23.8 µM | OVCAR-4 31.8 µM | Malme-3M 21.6 µM | SN12C 26.6 µM | NCI-H23 33.8 µM | 786-0 33.8 µM | SK-OV-3 62.2 µM | Hs-578T 34.8 µM | BT-549 35.3 µM
